According to US20240191226A1, “SMAD2 INHIBITION IN BETA CELLS FOR TYPE 2 DIABETES THERAPY” (University of Pittsburgh - Of the Commonwealth System of …, priority 2021, published 2024):

Experiments:
smad2 [1] = test: AAV6-GFP-U6-mSMAD2_shRNA treatment of beta-TC cells, Western blot; format: cell-based; details: beta-TC cells sorted after transfection, treated for three days, Western blot (FIG. 19A)
Description: (§1) FIGS. 19A-19C. AAV6-GFP-U6-mSMAD2_shRNA treatment in vitro blocks smad2 expression in MIN6 and Beta-TC cell lines. […] Phospho smad2 expression is nearly absent in Min6 cells after AAV6-GFP-U6-mSMAD2_shRNA treatment (B). […] Similar experiments can be performed in human beta cell lines (EndoC-bH5, Human Cell Design) and primary human beta cells.
(§2) FIGS. 19A-19C show results from experiments where Min6 cells or beta-TC cells were treated with AAV6-GFP-U6-mSMAD2_shRNA for three days. A lysate was prepared from total or sorted cells. RT-PCR, and Western blot for Smad2, phospho Smad2 and Beta-actin was performed. […] Phospho smad2 expression is nearly absent in Min6 cells after AAV6-GFP-U6-mSMAD2_shRNA treatment (FIG. 19B).

smad2 [2] = test: AAV6-GFP-U6-mSMAD2_shRNA treatment of Min6 cells, Western blot and RT-PCR; format: cell-based
Description: as §1, §2

Substance: AAV6-GFP-U6-mSMAD2_shRNA: AAV6 construct with smad2 shRNA sequence SEQ ID NO: 34, targeting sequence SEQ ID NO: 35 (DNA CCGGTGGTGTTCAATCGCATACTATCTCGAGATAGTATGCGATTGAACACCATTTTTG)
- smad2 expression (smad2 [1]): near complete ablation
- smad2 expression (smad2 [2]; Min6 cells sorted after transfection, treated for three days, Western blot (FIG. 19A)): near complete ablation
- Phospho smad2 expression (smad2 [2]; Min6 cells, treated for three days, Western blot (FIG. 19B)): nearly absent
- RT-PCR quantification of MIN6 mRNA (smad2) (smad2 [2]; sorted MIN6 cells, treated for three days (FIG. 19C)): complete absence
